Patent publication US20260217763A1, “Novel Peptide and Use Thereof” (Zincure Corp., priority 2022, published 2026)
Entries after “also recorded” stand apart in the source; their conditions may differ.

What was measured:
Assay type in all cases: cell-based
[1] = tested on: H4 cell lines (GL-H4) expressing GFP-linked LC3; assay: Analysis of autophagic flow blocked by bafilomycin A-1 (LC3-GFP spots); conditions: bafilomycin (Baf A1) 100 nM alone, GL-H4 cells
Experimental: FIGS. 2A to 2C are series of fluorescence micrographs of LC3-GFP spots 12 h after treating H4 cell line (GL-H4) that stably overexpresses GFP-LC3 protein with various variant alloferon peptides according to one embodiment of the present invention in combination with bafilomycin at a concentration of 20 μM, showing that autophagic flux blocked by bafilomycin A-1 is restored by the variant alloferon peptides according to one embodiment of the present invention. FIGS. 2D to 2F are graphs showing quantification of the fluorescence intensity of LC3-GFP spots 12 h after treatment of the GL-H4 cell line with the variant alloferon peptides according to one embodiment of the present invention in combination with bafilomycin at a concentration of 20 μM.
H4 cell line (GL-H4) and HEK293T cell line permanently transfected with GFP-LC3 plasmid were used in the present invention. The cell culture medium was Minimum Essential Medium (MEM, WellGene) supplemented with 10% fetal bovine serum (Hyclone, USA) and antibiotic and antifungal mixture (WellGene, Korea) and cultured in a cell culture machine at 37° C. and 5% CO2.
To investigate the effect of peptides comprising the amino acid sequences designated as SEQ ID NO: 3 to 16 on autophagic flow, the present inventors treated H4 cell lines (GL-H4) expressing GFP-linked LC3 with the peptides (20 μM) and/or the autophagic inhibitor Bafilomycin A-1 (Baf A1, 100 nM) to inhibit autophagy, and then the effect of the variant alloferon peptides according to one embodiment of the present invention was investigated by fluorescence microscopy analysis.

[2] = tested on: EGFP-SOD1 G93A aggregates in HEK293T cell line; assay: SOD1 protein aggregates after SOD1 overexpression, Western blot; conditions: bafilomycin 100 nM alone compared to the control
Experimental: (§1) FIG. 3A is a result of Western blot analysis of the level of SOD1 protein expression in protein samples obtained 18 h after treatment of HEK293T cells transfected to express SOD1 with 100 nM bafilomycin A1 alone or in combination with 30 μM of some variant alloferon peptides according to one embodiment of the present invention, for investigating the degradation of SOD1 protein aggregates by treatment with some variant alloferon peptides (DALS1, DAL-VS_V(−Q), DAL1, and DALV2) according to one embodiment of the present invention. FIG. 3B is a graph representing the results of quantifying relative expression of the SOD1 protein. In FIG. 3B, * indicates a significant difference compared to the treatment with bafilomycin alone (* p<0.05).
(§2) The present inventors then investigated whether some of the variant peptides (DALS1, DALVS_V, DAL1, DALV2) comprising the amino acid sequences designated as SEQ ID NO: 3 through 16 could resolve SOD1 aggregates that formed after transient transfection of SOD1 protein into the 293T cell line. To this end, EGFP-SOD1 G93A DNA was transiently transfected into the HEK293T cell line using Lipofectamine 2000. After transfection, the cell lines were incubated in a cell culture machine at 37° C. and 5% CO2 for 30 h, and the culture medium was replaced with Minimum Essential Medium (MEM, Gibco, USA). Subsequently, the cells were pretreated with 100 nM bafilomycin for 30 min, which were then treated with μM variant alloferon peptide and incubated for 18 h. After that, proteinase inhibitors and phosphatase inhibitors (2 μg/ml aprotinin, 2 μg/ml leupeptin, 1 μg/ml pepstatin A, 1 mM phenyl-methylsulfonyl fluoride (PMSF), 1 mM Na3 VO4, 5 mM NaF and 10 mM Na4P2O7) were put into a 6-well culture dish at 200 μl per well to lyse the cells. The obtained cell lysate was first left at 30 min for 4° C. Then, it was subjected to protein quantification using BCA protein assay kit (Pierce Biotechnology, USA), and centrifuged at 17,000×g for 20 min, where the supernant was discarded and only the cell debris was taken to obtain protein. Subsequently, 5× sample buffer (300 mM Tris, pH 6.8, 10% SDS, 50% Glycerol, 0.1% BPB, 2.5% Mercaptoethanol, 100 mM DTT) was mixed with the quantified sample, denatured at 95° C. for 5 min, and prepared for analysis. Then, electrophoresis was performed using 8% to 15% SDS-polyacrylamide gel, and the proteins separated by their sizes were transferred to polyvinylidene difluoride (PVDF) membranes (Millipore, USA). The protein-transferred membranes were then blocked with 3% skim milk powder in TBST for 1 h. […] Protein signals were detected using enhanced chemiluminescence (INTRON Biotechnology, South Korea) and a bio-imaging system (MF-Chemibis, Shimadzu Scientific Korea Corporation, South Korea).

[3] = tested on: EGFP-Tau P301L aggregates in HEK293T cell line; assay: Mutant tau protein aggregates after overexpression, Western blot; conditions: bafilomycin 100 nM alone compared to control
Experimental: as §1, with “FIG. 4A” for “FIG. 3A”, “of tau” for “of SOD1”, “express tau protein” for “express SOD1”, “FIG. 4B” for “FIG. 3B”, “the tau” for “the SOD1”, “protein. […]” for “protein. In FIG. 3B, * indicates a significant difference compared to the treatment with bafilomycin alone (* p<0.05).”
The present inventors then investigated whether some of the variant peptides (DALS1, DALVS_V, DAL1, DALV2) comprising the amino acid sequences designated as SEQ ID NO: 3 through 16 could resolve SOD1 aggregates that formed after transient transfection of SOD1 protein into the 293T cell line. […] Then, it was subjected to protein quantification using BCA protein assay kit (Pierce Biotechnology, USA), and centrifuged at 17,000×g for 20 min, where the supernant was discarded and only the cell debris was taken to obtain protein. Subsequently, 5× sample buffer (300 mM Tris, pH 6.8, 10% SDS, 50% Glycerol, 0.1% BPB, 2.5% Mercaptoethanol, 100 mM DTT) was mixed with the quantified sample, denatured at 95° C. for 5 min, and prepared for analysis. […]

[4] = tested on: EGFP-α-synuclein A53T aggregates in HEK293T cell line; assay: α-synuclein protein aggregates after overexpression, Western blot; conditions: bafilomycin 100 nM alone compared to the control
Experimental: as §1, with “5” for “3A”, “α-synuclein” for “SOD1”, “µM” for “μM”, “invention.” for “invention. FIG. 3B is a graph representing the results of quantifying relative expression of the SOD1 protein. In FIG. 3B, * indicates a significant difference compared to the treatment with bafilomycin alone (* p<0.05).”
as §2, with “After that, proteinase inhibitors and phosphatase inhibitors (2 μg/ml aprotinin, 2 μg/ml leupeptin, 1 μg/ml pepstatin A, 1 mM phenyl-methylsulfonyl fluoride (PMSF), 1 mM Na3 VO4, 5 mM NaF and 10 mM Na4P2O7) were put into a 6-well culture dish at 200 μl per well to lyse the cells. The obtained cell lysate was first left at 30 min for 4° C.” left out, “analysis.” for “analysis. Then, electrophoresis was performed using 8% to 15% SDS-polyacrylamide gel, and the proteins separated by their sizes were transferred to polyvinylidene difluoride (PVDF) membranes (Millipore, USA). The protein-transferred membranes were then blocked with 3% skim milk powder in TBST for 1 h.”, “Korea). […]” for “Korea).”

[5] = tested on: GFP-mHttQ74 aggregates in HEK293T cell line; assay: Mutant huntingtin protein aggregates after overexpression, Western blot; conditions: bafilomycin 100 nM alone compared to the control
Experimental: FIG. 6 is a result of Western blot analysis of the level of mutant huntingtin protein expression in protein samples obtained 18 h after treatment of HEK293T cells transfected to express mutant huntingtin protein with 100 nM bafilomycin A1 alone or in combination with 30 μM of some variant alloferon peptides according to one embodiment of the present invention, for investigating the degradation of mutant huntingtin protein aggregates by treatment with some variant alloferon peptides (DALS1, DAL-VS_V(−Q), DAL1, and DALV2) according to one embodiment of the present invention.
as §2, with “After that, proteinase inhibitors and phosphatase inhibitors (2 μg/ml aprotinin, 2 μg/ml leupeptin, 1 μg/ml pepstatin A, 1 mM phenyl-methylsulfonyl fluoride (PMSF), 1 mM Na3 VO4, 5 mM NaF and 10 mM Na4P2O7) were put into a 6-well culture dish at 200 μl per well to lyse the cells. The obtained cell lysate was first left at 30 min for 4° C.” left out, “analysis.” for “analysis. Then, electrophoresis was performed using 8% to 15% SDS-polyacrylamide gel, and the proteins separated by their sizes were transferred to polyvinylidene difluoride (PVDF) membranes (Millipore, USA). The protein-transferred membranes were then blocked with 3% skim milk powder in TBST for 1 h.”, “Korea). […]” for “Korea).”

CO/C1=C\C(C)=C\[C@@H](C)[C@@H](O)[C@@H](C)C/C(C)=C/C=C/[C@H](OC)[C@@H]([C@@H](C)[C@@H](O)[C@H](C)[C@@]2(O)C[C@@H](O)[C@H](C)[C@@H](C(C)C)O2)OC1=O [bafilomycin, Bafilomycin A-1, reference compound]
number and size of LC3 spots [1]: significantly increased; also recorded: significant increase in the number and size of LC3 spots
SOD1 protein aggregates [2]: increased
mutant tau protein aggregates [3]: increased
α-synuclein protein aggregates [4]: increased
mutant huntingtin protein aggregates [5]: increased
